Data from patent US8343964B2, “Indolic derivatives, their preparation processes and their uses in particular as antibacterials” (Universite Joseph Fourier, priority 2007, dated 2013).
Converted amounts (≈) assume the structure as drawn. Where two headings read alike, the source gives them in different places.

Legend:
[1] = test system: Staphylococcus aureus (ATCC 25923, sensitive Gram-positive strain); experiment: Determination of the antibacterial activity: MIC in liquid Mueller-Hinton medium (intrinsic antibacterial activity); format: cell-based
Method: (§1) The two strains used are Staphylococcus aureus (ATCC 25923, sensitive Gram-positive strain) denoted S, and S. aureus ITS-1199 (without efflux), as well as its derivative S. aureus ITS-1199B (Kaatz, G. W., Seo, S. M., Antimicrob. Agents Chemother., 1995, 39, 2650-2655) having a resistance to the fluoroquinolones due to the overexpression of the efflux pump NorA and denoted R NorA. The bacteria are cultured at 37° C. in Mueller-Hinton (MH, Bio Rad) or Luria-Bertani (LB, Difco) Medium.
The experiments described hereafter are carried out following the recommendations of the Comité de l'Antibiogramme de la Société Française de Microbiologic (http://www.sfm.asso.fr/nouv/general.php See also Courvalin, P., Goldstein, F., Philippon, A., Sirot J. L'antibiogramme, 1985, M.P.C.-Videom editor). The antibacterial activity of the molecules was determined in liquid medium using a Biomek 2000 robot (Beckman) and micro-titration plates. The final volume in each well is 200 μl. A maximum volume of 5 μl of a solution of the molecule in DMSO is added to each well containing 10^6 CFU/ml (Colony Forming Units) of bacteria in MH medium. The final concentration of the molecule to be tested must be 100 or 128 μg/ml. […] Ampicillin is used as a positive control and the same volume of DMSO as that used to introduce the molecule (generally 2 to 5 μl) as a negative control.
The experiments are repeated three times.

[2] = test system: S. aureus ITS-1199B (overexpression of the efflux pump NorA); format: cell-based, Staphylococcus aureus; settings: resistant strain R NorA; for MIC (μg/ml) of compound in the presence of ciprofloxacin at 4 μg/ml (c/4): ciprofloxacin 4 μg/ml (c/4); for MIC (μg/ml) of compound in the presence of ciprofloxacin at 8 μg/ml (c/2): ciprofloxacin 8 μg/ml (c/2)
Method: as §1
The experiences are carried out as above, but using the resistant strain, and looking at the effect of the mixture of the molecule to be tested and the antibiotic to which the bacterium is resistant. Thus, the method of a series of dilutions in Mueller-Hinton medium is used, also starting from a molecule concentration of 100 or 128 μg/ml.

[3] = test system: KB (human mouth carcinoma); experiment: In vitro cytotoxicity on KB cells; format: cell-based
Method: (§2) The in vitro cytotoxicity results, measured at a concentration of 10^−5 M, are described below. The cytotoxicity was measured on 5 cell lines—KB (human mouth carcinoma), MCF7 (breast carcinoma) and MCF7R (resistant strain), Vero (monkey kidney) and HCT116 (human colon tumour).

[4] = In vitro cytotoxicity on Vero cells; format: cell-based; settings: monkey
Method: as §2

[5] = In vitro cytotoxicity on HCT116 cells; format: cell-based; settings: human, concentration of 10^−5 M, read-out: Average cytotoxicity (% inhibition), HCT116 cells
Method: as §2

[6] = ATCC25923, compound alone, lowest concentration allowing no growth after 18 hours at 37° C., 10^6 CFU/ml, read-out: MIC / Antibacterial Activity (AA)
[7] = ATCC25923, 18 h, read-out: MIC / Antibacterial Activity (AA)
[8] = HCT116 cells (human colon tumour)
[9] = Vero cells (monkey kidney), concentration of 10^−5 M, read-out: Average cytotoxicity (% inhibition), Vero cells
[10] = concentration of 10^−5 M, read-out: Average cytotoxicity (% inhibition), Vero cells

CC(C)(C)OC(=O)NCC(c1c[nH]c2ccc(Cl)cc12)N(O)C(=O)OC(C)(C)C (centres unmarked) [Compound (12)]
MIC [1, 6]: 12.5 µg/mL (≈ 29.3 µM)
MIC (μg/ml) of compound in the presence of ciprofloxacin at 4 μg/ml (c/4) [2]: 4 µg/mL

COc1ccc(CN(O)C(C)c2c[nH]c3ccc(Br)cc23)cc1 (centres unmarked) [Compound (3)]
MIC [1, 7]: 100 µg/mL (≈ 266 µM)

COc1ccc2c(C(N)CN)c[nH]c2c1 (centres unmarked) [(31)]
Average cytotoxicity (% inhibition), KB cells ([3]; human): 41%
MIC [1, 6]: 64 µg/mL (≈ 312 µM)
cytotoxicity [4]: 27%

COc1cc(CN(O)C(CNC(=O)OC(C)(C)C)c2c[nH]c3ccc(Br)cc23)cc(OC)c1 (centres unmarked) [(10)]
MIC (μg/ml) of compound in the presence of ciprofloxacin at 4 μg/ml (c/4) [2]: 8 µg/mL

CC(C)(C)OC(=O)NCC(NO)c1c[nH]c2cc(Br)ccc12 (centres unmarked) [(22)]
Average cytotoxicity (% inhibition), KB cells ([3]; concentration of 10^−5 M): 0%
MIC [1, 7]: 50 µg/mL (≈ 135 µM)
cytotoxicity [5, 8]: 37%
cytotoxicity [4, 9]: 22%

COc1ccc(CN(O)C(CNC(=O)OC(C)(C)C)c2c[nH]c3ccc(Br)cc23)c(OC)c1 (centres unmarked) [Compound (8)]
MIC (μg/ml) of compound in the presence of ciprofloxacin at 4 μg/ml (c/4) [2]: 8 µg/mL
MIC (μg/ml) of compound in the presence of ciprofloxacin at 8 μg/ml (c/2) [2]: 8 µg/mL

CC(C)(C)OC(=O)NCC(N)c1c[nH]c2cc(Br)ccc12 (centres unmarked) [(26)]
MIC [1, 7]: 25 µg/mL (≈ 70.6 µM)

CC(c1c[nH]c2ccccc12)N(O)Cc1ccccc1 (centres unmarked) [(37)]
MIC (μg/ml) of compound in the presence of ciprofloxacin at 4 μg/ml (c/4) [2]: >8 µg/mL
MIC (μg/ml) of compound in the presence of ciprofloxacin at 8 μg/ml (c/2) [2]: >8 µg/mL

CC(C)(C)OC(=O)NCC(c1c[nH]c2ccc(Br)cc12)N(O)Cc1ccccc1 (centres unmarked) [Compound (4)]
MIC [1, 7]: 25 µg/mL (≈ 54.3 µM)

CC(C)(C)OC(=O)NCC(N)c1c[nH]c2ccccc12 (centres unmarked) [(23)]
Average cytotoxicity (% inhibition), KB cells ([3]; concentration of 10^−5 M): 2%
MIC (μg/ml) of compound in the presence of ciprofloxacin at 8 μg/ml (c/2) [2]: 4 µg/mL
cytotoxicity [5, 8]: 5%
cytotoxicity [4, 9]: 11%

CC(NCc1ccccc1)c1c[nH]c2ccc(Br)cc12 (centres unmarked) [Compound (15)]
MIC [1, 7]: 25 µg/mL (≈ 75.9 µM)

CC(C)(C)OC(=O)NCC(NO)c1c[nH]c2ccccc12 (centres unmarked) [(46), 1-N-(hydroxy)amino-2-[N′-(tert-butoxycarbonyl)amino]-1-(indol-3′-yl)ethane]
Average cytotoxicity (% inhibition), KB cells ([3]; concentration of 10^−5 M): 31%
cytotoxicity [5, 8]: 39%
cytotoxicity [4, 9]: 0%

COc1ccc2[nH]cc(C(N)CNC(=O)OC(C)(C)C)c2c1 (centres unmarked) [(24), 1-amino-[2-N′-(tert-butoxycarbonyl)amino]-1-(5′-methoxy-3′-indolyl) ethane]
Average cytotoxicity (% inhibition), KB cells ([3]; concentration of 10^−5 M): 2%
MIC ([1]; ATCC25923): ≤ 10 µg/mL
MIC (μg/ml) of compound in the presence of ciprofloxacin at 8 μg/ml (c/2) [2]: 4 µg/mL
cytotoxicity [5, 8]: 13%
cytotoxicity [4, 9]: 12%

CC(C)(C)OC(=O)NCC(c1c[nH]c2ccc(Br)cc12)[N+]([O-])=Cc1ccccc1 (centres unmarked) [(20 bis)]
MIC (μg/ml) of compound in the presence of ciprofloxacin at 4 μg/ml (c/4) [2]: 1 µg/mL
MIC (μg/ml) of compound in the presence of ciprofloxacin at 8 μg/ml (c/2) [2]: 1 µg/mL

COc1ccc2[nH]cc(C(C)N(O)Cc3ccccc3)c2c1 (centres unmarked) [(38)]
Average cytotoxicity (% inhibition), KB cells ([3]; concentration of 10^−5 M): 0%
MIC (μg/ml) of compound in the presence of ciprofloxacin at 8 μg/ml (c/2) [2]: >8 µg/mL
cytotoxicity [5, 8]: 15%
cytotoxicity [4, 9]: 5%

CC(C)(C)OC(=O)NCC(N)c1c[nH]c2ccc(Br)cc12 (centres unmarked) [(25), 1-amino-2-[N′-(tert-butoxycarbonyl)amino]-1-(5′-bromo-3′-indolyl) ethane]
MIC [1, 7]: 25 µg/mL (≈ 70.6 µM)

CC(C)(C)OC(=O)NCC(c1c[nH]c2ccc(Br)cc12)N(O)C(=O)OC(C)(C)C (centres unmarked) [Compound (13), 1-[N-(tert-butoxycarbonyl)-N-(hydroxy)amino]-2-[N-(tert-butoxycarbonyl)]-1-(5′-bromo-3′-indolyl)ethane]
MIC [1, 7]: 50 µg/mL (≈ 106 µM)

CC(C)CC(c1c[nH]c2ccccc12)N(O)C(=O)OC(C)(C)C (centres unmarked) [Compound (47)]
MIC [1, 6]: 64 µg/mL (≈ 201 µM)
MIC (μg/ml) of compound in the presence of ciprofloxacin at 4 μg/ml (c/4) [2]: 32 µg/mL

CC(C)(C)OC(=O)NCC(NC(=O)OC(C)(C)C)c1c[nH]c2cc(Br)ccc12 (centres unmarked) [(36)]
MIC (μg/ml) of compound in the presence of ciprofloxacin at 4 μg/ml (c/4) [2]: 8 µg/mL

CC(C)(C)OC(=O)NCC(NO)c1c[nH]c2ccc(Br)cc12 (centres unmarked) [(21), 1-N-(hydroxy)amino-2-[N′-(tert-butoxycarbonyl)amino]-1-(5′-bromo-3′-indolyl) ethane]
Average cytotoxicity (% inhibition), KB cells ([3]; concentration of 10^−5 M): 0%
MIC [1, 7]: 50 µg/mL (≈ 135 µM)
cytotoxicity [5, 8]: 28%
cytotoxicity [4, 9]: 11%

O=[N+]([O-])c1ccc(C(c2c[nH]c3ccccc23)N(O)Cc2ccccc2)cc1 (centres unmarked) [(42)]
MIC [1, 7]: 50 µg/mL (≈ 134 µM)

CC(c1c[nH]c2cc(Br)ccc12)N(O)Cc1ccccc1 (centres unmarked) [Compound (2)]
MIC [1, 7]: 100 µg/mL (≈ 290 µM)

CC(c1c[nH]c2ccc(Br)cc12)/[N+]([O-])=C\c1ccccc1 (centres unmarked) [(43)]
MIC [1, 7]: 100 µg/mL (≈ 291 µM)

CC(C)(C)OC(=O)NCC(c1c[nH]c2cc(Br)ccc12)N(O)Cc1ccccc1 (centres unmarked) [Compound (5)]
MIC [1, 6]: 6 µg/mL (≈ 13 µM)
MIC (μg/ml) of compound in the presence of ciprofloxacin at 4 μg/ml (c/4) [2]: 2 µg/mL

Cl.Cl.NCC(NO)c1c[nH]c2ccc(Br)cc12 (centres unmarked) [(32), 1-(N-hydroxy)-1,2-diamino-1-(5′-bromo-3′-indolyl)ethane dihydrochloride]
Average cytotoxicity (% inhibition), KB cells ([3]; concentration of 10^−5 M): 23%
MIC [1, 6]: 3 µg/mL
cytotoxicity [4, 10]: 20%

Cl.Cl.NCC(NO)c1c[nH]c2cc(Br)ccc12 (centres unmarked) [(33)]
Average cytotoxicity (% inhibition), KB cells ([3]; concentration of 10^−5 M): 14%
MIC [1, 6]: 6 µg/mL
cytotoxicity [5]: 37%
cytotoxicity [4, 10]: 31%

NCC(N)c1c[nH]c2cc(Br)ccc12 (centres unmarked) [(28)]
MIC [1, 6]: 25 µg/mL (≈ 98.4 µM)

O=C(CONC(=O)OCC1c2ccccc2-c2ccccc21)NC(COCc1ccccc1)c1c[nH]c2ccccc12 (centres unmarked) [Compound (48)]
MIC (μg/ml) of compound in the presence of ciprofloxacin at 4 μg/ml (c/4) [2]: 2 µg/mL

CC(c1c[nH]c2ccc(Br)cc12)N(O)Cc1ccccc1 (centres unmarked) [Compound (1)]
Average cytotoxicity (% inhibition), KB cells ([3]; concentration of 10^−5 M): 50%
MIC [1, 6]: 25 µg/mL (≈ 72.4 µM)
cytotoxicity [5, 8]: 28%
cytotoxicity [4, 9]: 36%

COc1ccc(CN(O)C(CC(C)C)c2c[nH]c3ccccc23)c(OC)c1 (centres unmarked) [(40)]
Average cytotoxicity (% inhibition), KB cells ([3]; concentration of 10^−5 M): 13%
MIC (μg/ml) of compound in the presence of ciprofloxacin at 8 μg/ml (c/2) [2]: >8 µg/mL
cytotoxicity [5, 8]: 46%
cytotoxicity [4, 9]: 32%

Cl.Cl.NCC(N)c1c[nH]c2ccc(Br)cc12 (centres unmarked) [(27), 1,2-diamino-1-(5′-bromo-3′-indolyl)ethane dihydrochloride]
Average cytotoxicity (% inhibition), KB cells ([3]; concentration of 10^−5 M): 0%
MIC [1, 6]: 25 µg/mL
cytotoxicity [5]: 26%
cytotoxicity [4, 10]: 14%

CC(C)(C)OC(=O)NCC(c1c[nH]c2ccccc12)N(O)C(=O)OC(C)(C)C (centres unmarked) [Compound (11)]
Average cytotoxicity (% inhibition), KB cells ([3]; concentration of 10^−5 M): 14%
cytotoxicity [5, 8]: 22%
cytotoxicity [4, 9]: 15%

COc1ccc2c(C(CNC(=O)OC(C)(C)C)N(O)Cc3ccccc3)c[nH]c2c1 (centres unmarked) [Compound (50), 1-[N-benzyl-N-(hydroxy)amino]-2-[N′-(tert-butoxycarbonyl)amino]-1-(6′-methoxyindol-3′-yl)ethane]
cytotoxicity [4, 9]: 42%

COc1ccc(/C=[N+](\[O-])C(CNC(=O)OC(C)(C)C)c2c[nH]c3ccc(Br)cc23)cc1 (centres unmarked) [(20)]
MIC (μg/ml) of compound in the presence of ciprofloxacin at 4 μg/ml (c/4) [2]: 3 µg/mL
MIC (μg/ml) of compound in the presence of ciprofloxacin at 8 μg/ml (c/2) [2]: <3 µg/mL
